What was measured:
[1] = test system: velvetleaf; test: Test B pre/postemergence velvetleaf; assay type: in vivo, Abutilon theophrasti
Method in brief: (§1)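 Herbicidal effect was estimated by eye on a ten-point control scale after plants spent twelve to sixteen days in a greenhouse following soil or foliar treatment. Foliar sprays targeted plants at one to four leaves; all doses were formulated in a non-phytotoxic solvent with surfactant.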

[2] = test system: soybean; test: Test B pre/postemergence soybean; assay type: in vivo, Glycine max
Method in brief: as §1

[3] = test system: bedstraw; test: Test B pre/postemergence bedstraw; assay type: in vivo, Galium aparine
Method in brief: as §1

[4] = test system: blackgrass; test: Test B pre/postemergence blackgrass; assay type: in vivo, Alopecurus myosuroides
Method in brief: as §1

[5] = Postemergence, Rate 125 g/ha, scale 0 to 10, 0 is no effect, 10 is complete control
[6] = Postemergence, Rate 250 g/ha, scale 0 to 10, 0 is no effect, 10 is complete control
[7] = Preemergence, Rate 62 g/ha, scale 0 to 10 (0 no effect, 10 complete control)
[8] = Preemergence, Rate 250 g/ha, scale of 0 to 10 where 0 is no effect and 10 is complete control
[9] = Preemergence, Rate 500 g/ha, scale of 0 to 10 where 0 is no effect and 10 is complete control
[10] = Rate 62 g/ha, Postemergence, scale of 0 to 10 where 0 is no effect and 10 is complete control
[11] = Rate 500 g/ha, Postemergence, scale 0 to 10, 0 no effect, 10 complete control
[12] = Postemergence, Rate 62 g/ha, scale 0 to 10, 0 is no effect, 10 is complete control
[13] = Postemergence, Rate 250 g/ha, scale 0 to 10, 0 no effect, 10 complete control
[14] = Preemergence, Rate 62 g/ha, scale 0 to 10, 0 is no effect, 10 is complete control
[15] = Preemergence, Rate 125 g/ha, scale 0 to 10 (0 no effect, 10 complete control)
[16] = Preemergence, Rate 500 g/ha, scale 0 (no effect) to 10 (complete control)
[17] = Rate 125 g/ha, Postemergence, scale 0 to 10, 0 no effect, 10 complete control
[18] = Rate 500 g/ha, Postemergence, 0 to 10 scale (0 no effect, 10 complete control)
[19] = Preemergence, Rate 31 g/ha, visual rating, scale 0 to 10 (0 no effect, 10 complete control)
[20] = Rate 31 g/ha, Postemergence, scale 0 to 10

CCOc1nc(C(F)(F)F)c(Cn2c(=O)on(C(=O)N(c3ccc(F)cc3)C(C)C)c2=O)s1 [Compound 381]
2: Plant response rating, Soybean [2, 5] | Plant response rating, Soybean [2, 6] | Plant response rating, Soybean [2, 11] | Blackgrass plant response rating [4, 9]
1: Soybean plant response rating [2, 10]
0: Plant response rating, Velvetleaf [1, 5] | Plant response rating, Velvetleaf [1, 6] | Plant response rating, Velvetleaf [1, 7] | Velvetleaf plant response rating (0 to 10 scale) ([1]; Preemergence, Rate 125 g/ha) | Velvetleaf plant response rating [1, 8] | Velvetleaf plant response rating [1, 9] | Velvetleaf plant response rating [1, 10] | Plant response rating, Velvetleaf [1, 11] | Plant response rating, Soybean [2, 7] | Soybean plant response rating (0 to 10 scale) ([2]; Preemergence, Rate 125 g/ha) | Soybean plant response rating [2, 8] | Soybean plant response rating [2, 9] | Plant response rating, Bedstraw [3, 5] | Plant response rating, Bedstraw [3, 6] | Plant response rating, Bedstraw [3, 7] | Bedstraw plant response rating (0 to 10 scale) ([3]; Preemergence, Rate 125 g/ha) | Bedstraw plant response rating [3, 8] | Bedstraw plant response rating [3, 9] | Bedstraw plant response rating [3, 10] | Plant response rating, Bedstraw [3, 11] | Plant response rating, Blackgrass [4, 5] | Plant response rating, Blackgrass [4, 6] | Plant response rating, Blackgrass [4, 7] | Blackgrass plant response rating (0 to 10 scale) ([4]; Preemergence, Rate 125 g/ha) | Blackgrass plant response rating [4, 8] | Blackgrass plant response rating [4, 10] | Plant response rating, Blackgrass [4, 11]

CCN(CC)C(=O)n1oc(=O)n(-c2cc(Cl)cc(Cl)c2)c1=O [Compound 11]
0: Velvetleaf plant response rating [1, 12] | Velvetleaf plant response rating [1, 13] | Plant response rating, Velvetleaf [1, 14] | Plant response rating, Velvetleaf [1, 15] | Plant response rating, Velvetleaf [1, 8] | Velvetleaf plant response rating [1, 16] | Velvetleaf plant response rating [1, 17] | Soybean plant response rating [2, 12] | Soybean plant response rating [2, 13] | Plant response rating, Soybean [2, 14] | Plant response rating, Soybean [2, 15] | Plant response rating, Soybean [2, 8] | Soybean plant response rating [2, 16] | Soybean plant response rating [2, 17] | Bedstraw plant response rating [3, 12] | Bedstraw plant response rating [3, 13] | Plant response rating, Bedstraw [3, 14] | Plant response rating, Bedstraw [3, 15] | Plant response rating, Bedstraw [3, 8] | Bedstraw plant response rating [3, 16] | Bedstraw plant response rating [3, 17] | Bedstraw plant response rating [3, 18] | Blackgrass plant response rating [4, 12] | Blackgrass plant response rating [4, 13] | Plant response rating, Blackgrass [4, 14] | Plant response rating, Blackgrass [4, 15] | Plant response rating, Blackgrass [4, 8] | Blackgrass plant response rating [4, 16] | Blackgrass plant response rating [4, 17] | Blackgrass plant response rating [4, 18]

COc1ccccc1-n1c(=O)on(C(=O)N(c2ccc(F)cc2F)C(C)C)c1=O [Compound 31]
4: Blackgrass plant response rating [4, 17]
0: Velvetleaf plant response rating [1, 12] | Velvetleaf plant response rating [1, 13] | Velvetleaf plant response rating [1, 19] | Plant response rating, Velvetleaf [1, 14] | Plant response rating, Velvetleaf [1, 15] | Plant response rating, Velvetleaf [1, 8] | Velvetleaf plant response rating [1, 17] | Soybean plant response rating [2, 19] | Plant response rating, Soybean [2, 14] | Plant response rating, Soybean [2, 15] | Plant response rating, Soybean [2, 8] | Bedstraw plant response rating [3, 12] | Bedstraw plant response rating [3, 13] | Bedstraw plant response rating [3, 19] | Plant response rating, Bedstraw [3, 14] | Plant response rating, Bedstraw [3, 15] | Plant response rating, Bedstraw [3, 8] | Bedstraw plant response rating [3, 20] | Bedstraw plant response rating [3, 17] | Blackgrass plant response rating [4, 12] | Blackgrass plant response rating [4, 19] | Plant response rating, Blackgrass [4, 14] | Blackgrass plant response rating [4, 20]
2: Plant response rating, Blackgrass [4, 15] | Plant response rating, Blackgrass [4, 8]
9: Blackgrass plant response rating [4, 13]
1: Soybean plant response rating [2, 12] | Soybean plant response rating [2, 13] | Soybean plant response rating [2, 17]
